What follows are molecules tested against T1, human DLK (Homo sapiens, UniProt Q12852) (assay: DLK Kd Determinations (KINOMEscan KdELECT, DiscoveRx)). Details: fusion protein of full length human DLK (amino acids 1-859) and NFkB DNA binding domain; qPCR readout; duplicate.
T1 sequence (Q12852 1-859): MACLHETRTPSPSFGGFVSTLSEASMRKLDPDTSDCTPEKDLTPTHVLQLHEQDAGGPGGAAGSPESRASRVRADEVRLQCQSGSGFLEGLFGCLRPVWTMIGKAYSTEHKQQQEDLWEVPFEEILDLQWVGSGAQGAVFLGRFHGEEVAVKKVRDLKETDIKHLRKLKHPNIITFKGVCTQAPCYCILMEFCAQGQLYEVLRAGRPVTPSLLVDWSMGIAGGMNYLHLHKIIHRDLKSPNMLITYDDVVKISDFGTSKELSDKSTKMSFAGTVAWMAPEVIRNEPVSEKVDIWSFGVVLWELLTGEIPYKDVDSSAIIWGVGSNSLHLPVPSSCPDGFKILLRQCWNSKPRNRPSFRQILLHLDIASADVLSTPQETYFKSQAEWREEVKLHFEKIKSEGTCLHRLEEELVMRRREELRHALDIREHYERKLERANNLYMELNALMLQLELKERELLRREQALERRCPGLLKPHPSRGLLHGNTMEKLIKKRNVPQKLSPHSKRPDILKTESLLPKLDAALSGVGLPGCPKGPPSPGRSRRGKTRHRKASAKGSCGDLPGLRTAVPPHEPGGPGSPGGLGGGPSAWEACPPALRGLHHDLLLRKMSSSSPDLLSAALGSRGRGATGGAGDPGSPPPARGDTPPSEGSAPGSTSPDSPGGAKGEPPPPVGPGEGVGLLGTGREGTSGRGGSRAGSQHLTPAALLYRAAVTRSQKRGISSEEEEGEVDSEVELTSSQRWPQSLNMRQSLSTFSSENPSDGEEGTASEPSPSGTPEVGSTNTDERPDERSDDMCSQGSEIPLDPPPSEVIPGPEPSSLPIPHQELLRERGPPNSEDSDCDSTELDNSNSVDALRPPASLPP
Design: full length of human DLK (amino acids 1-859); host or cells: transiently transfected HEK293 cells; unpurified extract
Description: The DLK dissociation constants (Kd) have been determined in the KINOMEscan KdELECT Service at DiscoveRx.
A fusion protein of full length of human DLK (amino acids 1-859) and the DNA binding domain of NFkB was expressed in transiently transfected HEK293 cells. From these HEK 293 cells, extracts were prepared in M-PER extraction buffer (Pierce) in the presence of Protease Inhibitor Cocktail Complete (Roche) and Phosphatase Inhibitor Cocktail Set II (Merck) per manufacturers' instructions. The DLK fusion protein was labeled with a chimeric double-stranded DNA tag containing the NFkB binding site (5′-GGGAATTCCC-3′) fused to an amplicon for qPCR readout, which was added directly to the expression extract (the final concentration of DNA-tag in the binding reaction is 0.1 nM).
Streptavidin-coated magnetic beads (Dynal M280) were treated with a biotinylated small molecule ligand for 30 minutes at room temperature to generate affinity resins the binding assays. The liganded beads were blocked with excess biotin and washed with blocking buffer (SeaBlock (Pierce), 1% BSA, 0.05% Tween 20, 1 mM DTT) to remove unbound ligand and to reduce nonspecific binding.
Extracts were used directly in binding assays without any enzyme purification steps at a ≧10,000-fold overall stock dilution (final DNA-tagged enzyme concentration <0.1 nM). Extracts were loaded with DNA-tag and diluted into the binding reaction in a two step process. First extracts were diluted 1:100 in 1× binding buffer (PBS/0.05% Tween 20/10 mM DTT/0.1% BSA/2 μg/ml sonicated salmon sperm DNA) containing 10 nM DNA-tag. This dilution was allowed to equilibrate at room temperature for 15 minutes and then subsequently diluted 1:100 in 1× binding buffer. Test compounds were prepared as 111× stocks in 100% DMSO. Kds were determined using an 11-point 3-fold compound dilution series with three DMSO control points. All compounds for Kd measurements are distributed by acoustic transfer (non-contact dispensing) in 100% DMSO. The compounds were then diluted directly into the assays such that the final concentration of DMSO was 0.9%. All reactions performed in polypropylene 384-well plates. Each was a final volume of 0.02 mL. Assays were incubated with shaking for 1 hour at room temperature. Then the beads were pelleted and washed with wash buffer (1×PBS, 0.05% Tween 20) to remove displaced kinase and test compound. The washed based were re-suspended in elution buffer (1×PBS, 0.05% Tween 20, 0.5 μM non-biotinylated affinity ligand) and incubated at room temperature with shaking for 30 minutes. The kinase concentration in the eluates was measured by qPCR. qPCR reactions were assembled by adding 2.5 μL of kinase eluate to 7.5 μL of qPCR master mix containing 0.15 μM amplicon primers and 0.15 μM amplicon probe. The qPCR protocol consisted of a 10 minute hot start at 95° C., followed by 35 cycles of 95° C. for 15 seconds, 60° C. for 1 minute.
Test compounds were prepared as 111× stocks in 100% DMSO. Kds were determined using an 11-point 3-fold compound dilution series with three DMSO control points. All compounds for Kd measurements are distributed by acoustic transfer (non-contact dispensing) in 100% DMSO. The compounds were then diluted directly into the assays such that the final concentration of DMSO was 0.9%. The Kds were determined using a compound top concentration of 30,000 nM. Kd measurements were performed in duplicate.
Binding constants (Kds) were calculated with a standard dose-response curve using the Hill equation: […]
The Hill Slope was set to −1. Curves were fitted using a non-linear least square fit with the Levenberg-Marquardt algorithm (Levenberg, K., A method for the solution of certain non-linear problems in least squares, Q. Appl. Math. 2, 164-168 (1944)). See also Fabian, M. A. et al. A small molecule-kinase interaction map for clinical kinase inhibitors. Nat. Biotechnol. […]
`CC(C)n1cc(-c2cnc(N)c(C(F)(F)F)c2)nc1C1CC1` [Example 8, 5-[2-cyclopropyl-1-(propan-2-yl)-1H-imidazol-4-yl]-3-(trifluoromethyl)pyridin-2-amine] gave a Kd of 130 nM. `Nc1ncc(-c2cn([C@H]3[C@@H]4CN(C5COC5)C[C@@H]43)c(C3CCC3)n2)cc1OC(F)F` [Example 57, 5-(2-cyclobutyl-1-((1R,5S,6s)-3-(oxetan-3-yl)-3-azabicyclo[3.1.0]hexan-6-yl)-1H-imidazol-4-yl)-3-(difluoromethoxy)pyridin-2-amine] was tested, and the Kd was 180 nM. Molecule `Nc1ncc(-c2cn([C@H]3[C@@H]4CN(C5COC5)C[C@@H]43)c(C3CC3)n2)cc1OC(F)F` [Example 104, 5-(2-cyclopropyl-1-((1R,5S,6s)-3-(oxetan-3-yl)-3-azabicyclo[3.1.0]hexan-6-yl)-1H-imidazol-4-yl)-3-(difluoromethoxy)pyridin-2-amine] has a Kd of 66 nM. With `Nc1ncc(-c2cn([C@H]3[C@@H]4CN(CC(F)F)C[C@@H]43)c(C3CC3)n2)cc1OC(F)F` [Example 103, 5-(2-cyclopropyl-1-((1R,5S,6s)-3-(2,2-difluoroethyl)-3-azabicyclo[3.1.0]hexan-6-yl)-1H-imidazol-4-yl)-3-(difluoromethoxy)pyridin-2-amine] the Kd was 92 nM. With `CC(C)c1nc(-c2cnc(N)c(C(F)(F)F)c2)cn1C1CCN(C2COC2)C1` (centres unmarked) [Example 36, 5-(2-isopropyl-1-(1-(oxetan-3-yl)pyrrolidin-3-yl)-1H-imidazol-4-yl)-3-(trifluoromethyl)pyridin-2-amine] the Kd was 350 nM. `Nc1ncc(-c2cn(C3CC3)c(CC(F)(F)F)n2)cc1C(F)(F)F` [Example 46, 5-(1-cyclopropyl-2-(2,2,2-trifluoroethyl)-1H-imidazol-4-yl)-3-(trifluoromethyl)pyridin-2-amine] was tested, and the Kd was 280 nM. `Nc1ncc(-c2cn3c(n2)C(C2CC2)OCC3)cc1C(F)(F)F` (centres unmarked) [Example 49, 5-(8-cyclopropyl-5,6-dihydro-8H-imidazo[2,1-c][1,4]oxazin-2-yl)-3-(trifluoromethyl)pyridin-2-amine] gave a Kd of 1200 nM. In the case of `Nc1ncc(-c2cn([C@H]3[C@@H]4CN(CC(F)F)C[C@@H]43)c(CC3CC3)n2)cc1OC(F)F` [Example 89, 5-(2-(cyclopropylmethyl)-1-((1R,5S,6s)-3-(2,2-difluoroethyl)-3-azabicyclo[3.1.0]hexan-6-yl)-1H-imidazol-4-yl)-3-(difluoromethoxy)pyridin-2-amine], the Kd is reported as 290 nM. `Nc1ncc(-c2cn([C@H]3[C@@H]4CNC[C@@H]43)c(CC3CC3)n2)cc1C(F)(F)F` [Example 59, 5-(1-((1R,5S,6s)-3-azabicyclo[3.1.0]hexan-6-yl)-2-(cyclopropylmethyl)-1H-imidazol-4-yl)-3-(trifluoromethyl)pyridin-2-amine] was tested, and the Kd was 50 nM. In the case of `Nc1ncc(-c2cn(C3CC3)c(CC3CC3)n2)cc1C(F)(F)F` [Example 47, 5-(1-cyclopropyl-2-(cyclopropylmethyl)-1H-imidazol-4-yl)-3-(trifluoromethyl)pyridin-2-amine], the Kd is reported as 120 nM. `Nc1ncc(-c2cn([C@H]3[C@@H]4CN(CCF)C[C@@H]43)c(C3CC3)n2)cc1OC(F)F` [Example 106, 5-(2-cyclopropyl-1-((1R,5S,6s)-3-(2-fluoroethyl)-3-azabicyclo[3.1.0]hexan-6-yl)-1H-imidazol-4-yl)-3-(difluoromethoxy)pyridin-2-amine] was tested, and the Kd was 55 nM. `Nc1ncc(-c2cn3c(n2)COCC3)cc1C(F)(F)F` [Example 10, 5-(5,6-dihydro-8H-imidazo[2,1-c][1,4]oxazin-2-yl)-3-(trifluoromethyl)pyridin-2-amine] was tested, and the Kd was 840 nM. For `Nc1ncc(-c2cn([C@H]3[C@@H]4CN(C5COC5)C[C@@H]43)c(CC(F)(F)F)n2)cc1C(F)(F)F` [Example 52, 5-(1-((1R,5S,6s)-3-(oxetan-3-yl)-3-azabicyclo[3.1.0]hexan-6-yl)-2-(2,2,2-trifluoroethyl)-1H-imidazol-4-yl)-3-(trifluoromethyl)pyridin-2-amine], the Kd was 100 nM. `CC(C)c1nc(-c2cnc(N)c(OC(F)F)c2)cn1[C@H]1[C@@H]2CNC[C@@H]21` [Example 50, 5-(1-((1R,5S,6s)-3-azabicyclo[3.1.0]hexan-6-yl)-2-isopropyl-1H-imidazol-4-yl)-3-(difluoromethoxy)pyridin-2-amine] showed a Kd of 170 nM. For `CC(C)c1nc(-c2cnc(N)c(OC(F)(F)F)c2)cn1[C@H]1[C@@H]2CN(CCF)C[C@@H]21` [Example 111, 5-(1-((1R,5S,6s)-3-(2-fluoroethyl)-3-azabicyclo[3.1.0]hexan-6-yl)-2-isopropyl-1H-imidazol-4-yl)-3-(trifluoromethoxy)pyridin-2-amine], the Kd was 100 nM. Work on `CC(C)c1nc(-c2cnc(N)c(OC(F)F)c2)cn1[C@H]1[C@@H]2CN(C3CCOCC3)C[C@@H]21` [Example 60, 3-(difluoromethoxy)-5-(2-isopropyl-1-((1R,5S,6s)-3-(tetrahydro-2H-pyran-4-yl)-3-azabicyclo[3.1.0]hexan-6-yl)-1H-imidazol-4-yl)pyridin-2-amine] yielded a Kd of 180 nM. For `CC(C)c1nc(-c2cnc(N)c(C(F)(F)F)c2)cn1[C@H]1[C@@H]2CC(N3CCOCC3)C[C@@H]21` (mixture of isomers) [Example 3, 5-(2-isopropyl-1-((1R,5S,6r)-3-morpholinobicyclo[3.1.0]hexan-6-yl)-1H-imidazol-4-yl)-3-(trifluoromethyl)pyridin-2-amine], the Kd was 51 nM. Molecule `Nc1ncc(-c2cn(CC3CC3)c([C@H]3[C@@H]4CN(C5COC5)C[C@@H]43)n2)cc1C(F)(F)F` [Example 1, 5-(1-(cyclopropylmethyl)-2-((1R,5S,6r)-3-(oxetan-3-yl)-3-azabicyclo[3.1.0]hexan-6-yl)-1H-imidazol-4-yl)-3-(trifluoromethyl)pyridin-2-amine] has a Kd of 140 nM. Work on `Nc1ncc(-c2cn(C3CC3)c(C3CC3)n2)cc1C(F)(F)F` [Example 9, 5-(1,2-dicyclopropyl-1H-imidazol-4-yl)-3-(trifluoromethyl)pyridin-2-amine] yielded a Kd of 240 nM. Molecule `Nc1ncc(-c2cn([C@H]3[C@@H]4CNC[C@@H]43)c(C3CC3)n2)cc1OC(F)F` [Example 96, 5-(1-((1R,5S,6s)-3-azabicyclo[3.1.0]hexan-6-yl)-2-cyclopropyl-1H-imidazol-4-yl)-3-(difluoromethoxy)pyridin-2-amine] has a Kd of 53 nM.
